Assay: Drug-drug interaction study between pulsed, inhaled nitric oxide and sildenafil in healthy volunteers
Description: Inhaled Nitric Oxide (iNO) has been approved for use in infants with hypoxic respiratory failure. Nitric oxide is a selective pulmonary vasodilator, whose action is mediated by the cyclic guanosine monophosphate (cGMP) pathway. […] The objective of this study is to investigate the potential pharmacodynamic interaction between pulsed iNO and sildenafil in healthy volunteers.
Five healthy volunteers received sildenafil for 24 hours prior to the addition of iNO. Changes in pharmacodynamics parameters such as Heart Rate, Blood Pressure, and Oxygen Saturation after dosing with both drugs was assessed for 27 hours and hourly for 4 hours post iNO discontinuation.
FIG. 7 illustrates the protocol design for this study. Briefly, on Day 1, subjects were dosed with sildenafil alone. One dose of 20 mg sildenafil was administered every […] on day 1 for a total of 3 doses on day 1. Vital signs (heart rate, blood pressure, and oxygen saturation) were assessed beginning 1 hour prior to administration of sildenafil and every 30 minutes until 2.5 hours after each dose of sildenafil. Adverse events were also monitored. On days 2-3, the sildenafil regimen was continued as administered on day 1, and supplemented with 27.5 hours of pulsed iNO therapy at 75 mcg/kg individual body weight (IBW)/hr (INOPulse). Vital signs were assessed beginning 1 hour prior to administration of iNO and every 30 minutes until 2.5 hours after each dose of sildenafil. Upon discontinuation of iNO, vital signs were measured hourly for a 4-hour period, and subjects were monitored for syncope and lightheadedness. Nitric oxide metabolites were measured throughout administration of iNO and for 4 hours post-discontinuation of iNO.

SMILES | Synergistic interaction (hypotensive drug-drug interaction) between iNO and sildenafil (even at peak levels of metabolites, all volunteers) | Other adverse events (iNO 75 mcg/kg IBW/hr co-administered with 20 mg sildenafil) | Syncope, lightheadedness, or signs of rebound upon discontinuation of iNO (monitored for 4 hours after iNO discontinuation, sildenafil background) | Systolic and diastolic blood pressures during co-administration of iNO, compared to first 3 doses of sildenafil alone (pulsed iNO 75 mcg/kg IBW/hr for 27.5 hours with 20 mg sildenafil, sildenafil doses 4 and 5, and peak nitric oxide metabolites (doses 6 and 7)) | Blood pressure after dosing with sildenafil alone (5 healthy volunteers, 20 mg sildenafil every 6 hours, all 3 doses on day 1, within 2.5 hours after dosing)
[N]=O [iNO, nitric oxide] | No synergistic interaction | no other adverse events were identified | no instances of syncope, lightheadedness, or signs of possible rebound | no further decline | 
CCCc1nn(C)c2c(=O)[nH]c(-c3cc(S(=O)(=O)N4CCN(C)CC4)ccc3OCC)nc12 [sildenafil] |  |  |  |  | drop in blood pressure

— patent publication US20220096535A1, “COMBINATION DRUG THERAPIES OF PDE-5 INHIBITORS AND INHALED NITRIC OXIDE” (BELLEROPHON THERAPEUTICS, priority 2019, published 2022)
